Legend:
[1] = system: orthotopic MCF7 human breast cancer cell line xenograft; assay: Anti-tumor efficacy against orthotopic MCF7 human breast cancer cell line xenograft in NOD/SCID mice; assay type: in vivo, female NOD/SCID mice; conditions: for Tumor volume changes from baseline: Median: amcenestrant 10 mg/kg BID, everolimus 10 mg/kg BIW; for Regressions Complete: animals with complete regression / animals in group; for Regressions Complete / Regressions Partial / Median % of regressions on day 28 / ΔT/ΔC in % at day 28: amcenestrant 10 mg/kg PO BID, everolimus 10 mg/kg PO BIW; for Regressions Partial: animals with partial regression / animals in group; for Biological Interpretation: based on ΔT/ΔC at day 28; for ΔT/ΔC in % at day 28: 28 days
Description: In the present study, the anti-tumor efficacy of amcenestrant combined with everolimus was investigated after 28 days treatment against an orthotopic MCF7 human breast cancer cell line xenograft in female NOD/SCID mice.
The treated groups included amcenestrant at 10 mg/kg alone, everolimus at 10 mg/kg alone, and the combination of amcenestrant and everolimus at the same dose and regime.
For 28 days, amcenestrant was orally dosed twice a day (BID), and everolimus was orally dosed twice a week (BIW). Anti-tumor efficacy was evaluated by tumor volume measurement.
Female NOD/SCID mice were obtained from GemPharmatech Co., Ltd (Nanjing University National Resource Center for Mutant Mice, Model Animal Research Center) (Nanjing, CHINA). Animals were allowed to acclimate for at least four days before the study enrollment. Mice were 7 to 8 weeks old and weighed between 22.5 and 28.4 grams at the beginning of the treatments. These animals were housed under conditions outlined in the guidelines approved by the Institutional Animal Care and Use Committee (IACUC) of CrownBio following the guidance of the Association for Assessment and Accreditation of Laboratory Animal Care (AAALAC).
MCF7 cells were obtained from the American Type Culture Collection (ATCC® HTB-22™). The MCF7 tumor cells were maintained in vitro with MEM medium supplemented with 10% fetal bovine serum, 0.01 mM non-essential amino acid, 0.01 mg/ml bovine insulin, and 2 mM L-glutamine at 37° C. in an atmosphere of 5% CO2 in air. The cells in exponential growth phase were harvested and quantitated by cell counter before tumor inoculation.
The mouse was subcutaneously implanted with estrogen pellets (0.18 mg/pellet, 17β-estradiol, Innovative Research of America, Sarasota, Florida, USA), hereafter referred to as “E2 supplement”, at the right flank one day before the tumor inoculation. Each mouse was inoculated with MCF-7 tumor cells (2×10 e7) in 0.25 ml of PBS/Matrigel (1:1) mixture at the right mammary fat pad for tumor development.
Everolimus (Manufacturer: Selleck; Lot number: S1120) was formulated in 30% propylene glycol (dissolve first): 5% Tween 80: 65% ddH2O (double distilled water).
Dose volume for amcenestrant and everolimus for oral administration: 10 ml/kg.
Doses: amcenestrant at 10 mg/kg and everolimus at 10 mg/kg in the above volume.
Animal body weight was assessed daily.
Vehicle treated animals were used as controls.
The primary efficacy end points include tumor volume changes from baseline summarized by the ratio of medians of tumor volume changes from baseline between the treated and control groups (ΔT/ΔC). Changes in tumor volume for each treated (T) and control (C) group were calculated for each animal on each day by subtracting the tumor volume on the day of first treatment (staging day) from the tumor volume on the specified observation day. The median ΔT was calculated for the treated group and the median ΔC was calculated for the control group. The ratio ΔT/ΔC was calculated and expressed as percentage: […]
Percent tumor regression is defined as % (percentage) of tumor volume decrease in the treated group on a specified observation day compared to its volume when the study was initiated. At a specific time point (t) and for each animal, the regression percentage was calculated using the following formula: […]
The median percent regression for a group on a given day was then calculated by taking the median of individual % regression values calculated for each animal in the group. The day of calculation was determined by the day when ΔT/ΔC is calculated, except if median percent regression was not representative of the activity of the group. In this case, the day was determined by the first day when the median percent regression was maximal.
A two-way analysis of variance (ANOVA) with factors treatment and day (repeated) was performed on tumor volume changes from baseline.

[2] = amcenestrant 10 mg/kg BID, everolimus 10 mg/kg BIW, 28 days
Description: The animals required for experiment (plus extra) were pooled and implanted with MCF7 cells. On day 0 (12 days post implantation), the mice were pooled and randomly distributed to the treatment and control groups (10 mice per group), where median tumor volumes for each group was 119 mm^3. Treatments of amcenestrant and everolimus were initiated on day 1. For 28 days, amcenestrant was orally administered at 10 mg/kg BID (8 hours apart), and everolimus was orally administered at 10 mg/kg BIW. Animal body weight was assessed daily.
The dosages are expressed in mg/kg and based on daily body weight per animal. Vehicle treated animals were used as controls. Mice were checked daily for adverse clinical reactions. Individual mice were weighed daily until the end of the experiment. Mice were euthanized when morbid or weight loss ≥20% was observed. Tumors were measured with a caliper twice weekly until final sacrifice. When a tumor size reached approximately 3000 mm^3 or when there were animal health issues (40% area of a tumor ulcerated), animals were euthanized, and date of death recorded. Solid tumor volumes were estimated from two-dimensional tumor measurements and calculated according to the following equation:
Animal body weight included the tumor weight.

**Q.** Which “Tumor volume changes from baseline: Median” value (from here on “Tumor volume changes”) ([1]; Day 4) does the source give for CO[C@H]1C[C@@H]2CC[C@@H](C)[C@@](O)(O2)C(=O)C(=O)N2CCCC[C@H]2C(=O)O[C@H]([C@H](C)C[C@@H]2CC[C@@H](OCCO)[C@H](OC)C2)CC(=O)[C@H](C)/C=C(\C)[C@@H](O)[C@@H](OC)C(=O)[C@H](C)C[C@H](C)/C=C/C=C/C=C/1C [Everolimus] here?
**A.** 28.5 mm^3

**Q.** And the “Tumor volume changes” value ([1]; Day 7)?
**A.** 48.0 mm^3

**Q.** What about the “Tumor volume changes” value ([1]; Day 11) of the same compound?
**A.** 65.0 mm^3

**Q.** What about the “Tumor volume changes” value ([1]; Day 14) of the same compound?
**A.** 81.5 mm^3

**Q.** And the “Tumor volume changes” value ([1]; Day 18)?
**A.** 10.0 mm^3

**Q.** And the “Tumor volume changes” value ([1]; Day 21)?
**A.** −48.0 mm^3

**Q.** And the “Tumor volume changes” value ([1]; Day 25)?
**A.** −47.0 mm^3

**Q.** And the “Tumor volume changes” value ([1]; Day 28)?
**A.** −53.0 mm^3

**Q.** And the “Regressions Complete” value [1]?
**A.** 0/6

**Q.** What about the “Regressions Partial” value [1] of the same compound?
**A.** 5/6

**Q.** And the “Biological Interpretation” value [1]?
**A.** Very active (ΔT/ΔC<0% is considered as tumor regression (very active))

**Q.** And the “Median % of regressions on day 28” value [1]?
**A.** −17%

**Q.** And the “ΔT/ΔC in % at day 28” value [1]?
**A.** −17%

**Q.** What about the “Drug-related body weight loss/animal death” value [2] of the same compound?
**A.** no drug-related body weight loss/animal death was observed

**Q.** Which “Tumor volume changes” value ([1]; Day 4) does the source give for O=C(O)c1ccc2c(c1)CCCC(c1ccc(Cl)cc1Cl)=C2c1ccc(O[C@H]2CCN(CCCF)C2)cc1 [Amcenestrant, 6-(2,4-dichlorophenyl)-5-[4-[(3S)-1-(3-fluoropropyl)pyrrolidin-3-yl]oxyphenyl]-8,9-dihydro-7H-benzo[7]annulene-2-carboxylic acid] here?
**A.** 22.0 mm^3

**Q.** What about the “Tumor volume changes” value ([1]; Day 7) of the same compound?
**A.** 32.5 mm^3

**Q.** And the “Tumor volume changes” value ([1]; Day 11)?
**A.** 60.0 mm^3

**Q.** And the “Tumor volume changes” value ([1]; Day 14)?
**A.** 76.5 mm^3

**Q.** What about the “Tumor volume changes” value ([1]; Day 18) of the same compound?
**A.** 40.0 mm^3

**Q.** What about the “Tumor volume changes” value ([1]; Day 21) of the same compound?
**A.** −2.0 mm^3

**Q.** And the “Tumor volume changes” value ([1]; Day 25)?
**A.** −38.0 mm^3

**Q.** And the “Tumor volume changes” value ([1]; Day 28)?
**A.** −42.0 mm^3

**Q.** What about the “Regressions Complete” value [1] of the same compound?
**A.** 0/9

**Q.** What about the “Regressions Partial” value [1] of the same compound?
**A.** 8/9

**Q.** And the “Biological Interpretation” value [1]?
**A.** Very active (ΔT/ΔC<0% is considered as tumor regression (very active))

**Q.** And the “Median % of regressions on day 28” value [1]?
**A.** −13%

**Q.** What about the “ΔT/ΔC in % at day 28” value [1] of the same compound?
**A.** −13%

**Q.** And the “Drug-related body weight loss/animal death” value [2]?
**A.** no drug-related body weight loss/animal death was observed

From US20240197692A1, “Combination Comprising Everolimus and Amcenestrant” (Sanofi, priority 2021, published 2024)
